In EP0655506B1 (priority 1994, dated 1995):

Tests used:
[1] = molecular target: T1, HIV reverse transcriptase, change of Glu 89 to Glycine (Human immunodeficiency virus type 1 group M subtype B, UniProt P04585, E676G); details: relative to the unmutated enzyme; cited from earlier work
T1 construct: glu-89 of human immunodeficiency virus type 1 reverse transcriptase

[2] = molecular target: T2, T7 DNA polymerase mutant T7 C-T4, R D N A K A I N F G F L Y G (Escherichia phage T7, UniProt P00581, DEL118-145/F524I/I525N/T523A/Y526F); test: SDS activity gel analysis, incorporation of ddNMP relative to dNMP (Example 2); type: biochemical, bacteriophage T7; details: renatured enzyme in gel; 1.5 µM 4dNTPs with or without 30 µM ddTTP; 37 °C 4 hr
T2 construct: made in house; host or cells: induced cells of a strain producing E. coli thioredoxin; crude lysate, renatured in gel
T2 sequence (P00581 other isoform, or with tags, fused parts or gaps DEL118-145/T523A/F524I/I525N/Y526F): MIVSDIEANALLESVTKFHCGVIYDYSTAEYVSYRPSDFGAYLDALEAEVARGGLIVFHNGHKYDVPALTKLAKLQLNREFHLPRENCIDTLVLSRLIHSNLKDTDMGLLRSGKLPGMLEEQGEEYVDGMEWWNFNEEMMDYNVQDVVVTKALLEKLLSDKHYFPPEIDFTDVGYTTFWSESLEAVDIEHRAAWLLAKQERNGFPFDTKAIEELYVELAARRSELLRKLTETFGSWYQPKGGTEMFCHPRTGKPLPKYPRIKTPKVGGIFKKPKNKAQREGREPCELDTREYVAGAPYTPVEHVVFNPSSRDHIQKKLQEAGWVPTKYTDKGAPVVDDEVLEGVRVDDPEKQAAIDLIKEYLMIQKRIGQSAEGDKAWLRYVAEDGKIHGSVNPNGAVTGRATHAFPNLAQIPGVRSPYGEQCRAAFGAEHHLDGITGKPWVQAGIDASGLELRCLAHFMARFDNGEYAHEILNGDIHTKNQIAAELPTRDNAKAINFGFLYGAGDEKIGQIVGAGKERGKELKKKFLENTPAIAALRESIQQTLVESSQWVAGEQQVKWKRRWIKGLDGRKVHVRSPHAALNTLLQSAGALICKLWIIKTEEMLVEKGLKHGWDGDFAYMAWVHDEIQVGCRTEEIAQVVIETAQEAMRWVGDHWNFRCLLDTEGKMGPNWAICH
T2 sequence (P0AA25 2-109, stated change not applied, further chain): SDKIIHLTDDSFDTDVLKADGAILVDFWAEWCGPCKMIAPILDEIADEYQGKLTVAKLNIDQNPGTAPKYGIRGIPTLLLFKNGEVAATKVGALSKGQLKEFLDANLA
Description: (§1) Mutant DNA polymerases are screened for their ability to incorporate dideoxynucleotides by SDS activity gel analysis. The procedure is a modification of that described by Spanos and Hübscher 91 Methods in Enzymology 263, 1983 and Karawya et al. 135 Analytical Biochemistry 318, 1983. Briefly, 10 ml of cells are induced for 4 to 6 hours and then pelleted. The cell pellet is resuspended in 0.3 ml 25 mM Tris HCl, pH 7.0, 5 mM EDTA. 20 µl of the resuspended cells are mixed with 40 µl of a solution of 1% SDS (sodium dodecyl sulfate), 2% mercaptoethanol, 30 % glycerol, 0.04% bromphenol blue, and 100 mM TrisHCl, pH 6.8. The mixtures are incubated at 37 °C for 5 min, and then 20 µl aliquots are loaded in duplicate onto two SDS polyacrylamide gels. The SDS polyacrylamide gels consist of a resolving gel that contains 8% polyacrylamide, 0.27% bisacrylamide, 190 mM TrisHCl, pH 8.8, 0.05% SDS, and 25 µg/ml denatured salmon sperm DNA, and a stacking gel that consists of 5% polyacrylamide, 0.17% bisacrylamide, 150 mM TrisHCl, pH 6.8, and 0.1% SDS. The two gels are electrophoresed at 100 V for 13 hr at a constant temperature of 13 °C in an electrophoresis buffer consisting of 190 mM TrisHCl and pH 8.8, 0.05% SDS.
(§2) After electrophoresis, the gels are washed over 8 hr in 4 changes of 500 ml each of Renaturation Buffer (50 mM Tris.HCl, pH 7.5, 5 mM magnesium acetate, 1 mM dithiothreitol, 40 mM KCI, 400 µg/ml bovine serum albumin, 16% glycerol and 0.95 mM EDTA) at 4 °C.
(§3) The renatured proteins are assayed for DNA polymerase activity by incubating each of the two gels in 6 ml of Renaturation Buffer, 1.5 µM 4dNTPs, 4 µl of [a-^32P]dATP (800 Ci/mmol, 10 mCi/ml), and 80 µg of purified thioredoxin. One of the mixtures also contains 30 µM ddTTP (a 20-fold molar excess over dTTP). The mixtures are incubated for 4 hr at 37 °C (70 °C for 2 hr for thermophilic DNA polymerases).
(§4) After incubation the gels are washed for 8 hr against four changes of 5% trichloracetic acid and 1% sodium pyrophosphate. The gels are then dried and autoradiographed.
(§5) To determine whether a mutant DNA polymerase is discriminating more or less against ddTTP, the intensities of the radioactive bands are compared on the two gels that were incubated in the presence and absence of ddTTP, and the ratio of the signal in the two bands for the unmodified DNA polymerase is compared with the ratio of the signal in the two bands for each of the mutants.

[3] = molecular target: T3, T7 DNA polymerase mutant T7 C-T8 (Y526F), R D N A K T F I F G F L Y G (Escherichia phage T7, UniProt P00581, DEL118-145/Y526F); test: as above; type: biochemical, bacteriophage T7
T3 construct: made in house; host or cells: induced cells of a strain producing E. coli thioredoxin; crude lysate, renatured in gel
T3 sequence (P00581 other isoform, or with tags, fused parts or gaps DEL118-145/Y526F): as the sequence (P00581 other isoform, or with tags, fused parts or gaps DEL118-145/T523A/F524I/I525N/Y526F) above, with A495T, I496F, N497I counted along it
T3 sequence (P0AA25 2-109, stated change not applied, further chain): as the sequence (P0AA25 2-109, stated change not applied, further chain) above
Description: as §1, §2, §3, §4, §5

[4] = molecular target: T4, T7 DNA polymerase, wild type (T7 WT), R D N A K T F I Y G F L Y G (Escherichia phage T7, UniProt P00581, DEL118-145); test: as above; type: biochemical, bacteriophage T7
T4 construct: made in house; host or cells: induced cells of a strain producing E. coli thioredoxin; crude lysate, renatured in gel
T4 sequence (P00581 other isoform, or with tags, fused parts or gaps DEL118-145): as the sequence (P00581 other isoform, or with tags, fused parts or gaps DEL118-145/T523A/F524I/I525N/Y526F) above, with A495T, I496F, N497I, F498Y counted along it
T4 sequence (P0AA25 2-109, stated change not applied, further chain): as the sequence (P0AA25 2-109, stated change not applied, further chain) above
Description: as §1, §2, §3, §4, §5

[5] = molecular target: T5, T7 DNA polymerase mutant T7 C-T7, R D N A K T F N Y G F L Y G (Escherichia phage T7, UniProt P00581, DEL118-145/I525N); test: as above; type: biochemical, bacteriophage T7; details: renatured enzyme in gel; 1.5 µM 4dNTPs with or without 30 µM ddTTP; 37 °C 4 hr
T5 construct: made in house; host or cells: induced cells of a strain producing E. coli thioredoxin; crude lysate, renatured in gel
T5 sequence (P0AA25 2-109, stated change not applied): as the sequence (P0AA25 2-109, stated change not applied, further chain) above
T5 sequence (P00581 other isoform, or with tags, fused parts or gaps DEL118-145/I525N): as the sequence (P00581 other isoform, or with tags, fused parts or gaps DEL118-145/T523A/F524I/I525N/Y526F) above, with A495T, I496F, F498Y counted along it
Description: as §1, §2, §3, §4, §5

[6] = molecular target: T6, T7 DNA polymerase mutant T7 C-T2, R R S A K A I N F G L I Y G (Escherichia phage T7, UniProt P00581, D519R/DEL118-145/F524I/F528L/I525N/L529I/N520S/T523A/Y526F); test: as above; type: biochemical, bacteriophage T7; details: renatured enzyme in gel; 1.5 µM 4dNTPs with or without 30 µM ddTTP; 37 °C 4 hr
T6 construct: made in house; host or cells: induced cells of a strain producing E. coli thioredoxin; crude lysate, renatured in gel
T6 sequence (P00581 other isoform, or with tags, fused parts or gaps DEL118-145/D519R/N520S/T523A/F524I/I525N/Y526F/F528L/L529I): as the sequence (P00581 other isoform, or with tags, fused parts or gaps DEL118-145/T523A/F524I/I525N/Y526F) above, with D491R, N492S, F500L, L501I counted along it
T6 sequence (P0AA25 2-109, stated change not applied, further chain): as the sequence (P0AA25 2-109, stated change not applied, further chain) above
Description: as §1, §2, §3, §4, §5

[7] = molecular target: T7, T7 DNA polymerase mutant T7 C-T5, R D N A K A I I Y G F L Y G (Escherichia phage T7, UniProt P00581, DEL118-145/F524I/T523A); test: as above; type: biochemical, bacteriophage T7; details: renatured enzyme in gel; 1.5 µM 4dNTPs with or without 30 µM ddTTP; 37 °C 4 hr
T7 construct: made in house; host or cells: induced cells of a strain producing E. coli thioredoxin; crude lysate, renatured in gel
T7 sequence (P0AA25 2-109, stated change not applied): as the sequence (P0AA25 2-109, stated change not applied, further chain) above
T7 sequence (P00581 other isoform, or with tags, fused parts or gaps DEL118-145/T523A/F524I): as the sequence (P00581 other isoform, or with tags, fused parts or gaps DEL118-145/T523A/F524I/I525N/Y526F) above, with N497I, F498Y counted along it
Description: as §1, §2, §3, §4, §5

[8] = molecular target: T8, T7 DNA polymerase mutant T7 C-T3, R R S A K T F I Y G F L Y G (Escherichia phage T7, UniProt P00581, D519R/DEL118-145/N520S); test: as above; type: biochemical, bacteriophage T7; details: renatured enzyme in gel; 1.5 µM 4dNTPs with or without 30 µM ddTTP; 37 °C 4 hr
T8 construct: made in house; host or cells: induced cells of a strain producing E. coli thioredoxin; crude lysate, renatured in gel
T8 sequence (P00581 other isoform, or with tags, fused parts or gaps DEL118-145/D519R/N520S): as the sequence (P00581 other isoform, or with tags, fused parts or gaps DEL118-145/T523A/F524I/I525N/Y526F) above, with D491R, N492S, A495T, I496F, N497I, F498Y counted along it
T8 sequence (P0AA25 2-109, stated change not applied, further chain): as the sequence (P0AA25 2-109, stated change not applied, further chain) above
Description: as §1, §2, §3, §4, §5

[9] = molecular target: T9, T7 DNA polymerase mutant T7 C-T6, R D N A K T F N F G F L Y G (Escherichia phage T7, UniProt P00581, DEL118-145/I525N/Y526F); test: as above; type: biochemical, bacteriophage T7; details: renatured enzyme in gel; 1.5 µM 4dNTPs with or without 30 µM ddTTP; 37 °C 4 hr
T9 construct: made in house; host or cells: induced cells of a strain producing E. coli thioredoxin; crude lysate, renatured in gel
T9 sequence (P0AA25 2-109, stated change not applied): as the sequence (P0AA25 2-109, stated change not applied, further chain) above
T9 sequence (P00581 other isoform, or with tags, fused parts or gaps DEL118-145/I525N/Y526F): as the sequence (P00581 other isoform, or with tags, fused parts or gaps DEL118-145/T523A/F524I/I525N/Y526F) above, with A495T, I496F counted along it
Description: as §1, §2, §3, §4, §5

[10] = renatured enzyme in gel, 1.5 µM 4dNTPs with or without 30 µM ddTTP, 37 °C 4 hr

Structure (SMILES): Nc1nc2c(ncn2[C@H]2CC[C@@H](COP(=O)(O)OP(=O)(O)OP(=O)(O)O)O2)c(=O)[nH]1 [ddGTP]
- ddGTP required to obtain same extent of inhibition [1]: about 10 times more

Structure (SMILES): Cc1cn([C@H]2CC[C@@H](COP(=O)(O)OP(=O)(O)OP(=O)(O)O)O2)c(=O)[nH]c1=O [ddTTP]
- ddNTP Discrimination [2]: High
- intensity of the bands in the presence versus the absence of ddTTP ([3]; 30 µM ddTTP (20-fold molar excess over dTTP), 1.5 µM 4dNTPs, within a factor of two): approximately the same intensity
- ddNTP Discrimination [3, 10]: High
- intensity of the bands in the presence of ddTTP relative to the absence of ddTTP ([4]; 30 µM ddTTP (20-fold molar excess over dTTP), 1.5 µM 4dNTPs): < 5%
- ddNTP Discrimination [4, 10]: Low
- ddNTP Discrimination [5]: Low
- ddNTP Discrimination [6]: High
- ddNTP Discrimination [7]: Low
- ddNTP Discrimination [8]: Low
- ddNTP Discrimination [9]: High
